In US10663548B2, “System and method for magnetic resonance imaging” (The University of Western Ontario, priority 2008, dated 2020):
Read-outs that look alike come from different tables or passages of the source.

Experiments:
[1] = system: albumin; experiment: Relaxivity in the presence and absence of albumin at 1.5 T; type: physicochemical
Protocol: To characterize the efficacy of an activatable contrast agent, the relaxivity enhancement ratio, that is the ratio of the activated relaxivity to the inactivated relaxivity can be defined. For Vasovist at a magnetic field strength equal to 1.5 T, the relaxivities in the presence and absence of albumin are 19 s^−1 mM^−1 and 5.2 s^−1 mM^−1 respectively, resulting in a relaxivity enhancement ratio of 3.7. From FIG. 3 it can be seen that the Vasovist relaxivity enhancement ratio peaks in the vicinity of a magnetic filed strength equal to 0.5 T, and falls quickly for magnetic field strengths above that value.
Defining R1′ and r1′ as the partial derivatives of R1 and r1 with respect to the polarizing magnetic field B0 results in R1′=R1Unenhanced′+r1′*[CA]. Applying the approximation that R1′Unenhanced≈0 for magnetic fields above 1.0 T, results in the expression R1′≈r1′*[CA]. […] For Vasovist, the relaxivity slope enhancement ratio (ratio of activated r1′ to inactivated r1′) is 90 at a magnetic field strength equal to 1.5 T. This represents a 25-fold increase over the absolute relaxivity enhancement ratio of 3.7 mentioned above. The high specificity of DREMR enhancement is not specific to Vasovist but applies to any T1 contrast agent that undergoes binding to large molecules (15).

[2] = target: T1, rabbit serum albumin (Oryctolagus cuniculus, UniProt P49065); experiment: MRI phantom imaging (T1 weighted and DREMR) with and without rabbit serum albumin; settings: 1.5 T, 21° C.
T1 construct: purchased Sigma-Aldrich batch 104K7560 (catalogue number not given)
Protocol: The particular choice of agent/protein pair was based by the availability of the contrast agent and its well-documented relaxivity mechanisms, rather than any specific clinical or research interest in albumin.
An MRI phantom (see FIG. 5a) was constructed that held two columns of six rows of glass tubes; each tube 3 cm in length with a 0.4 mL capacity. The sample tubes in the left column were filled with 0.01 M phosphate buffered saline (PBS) (NaCl 0.138M, KCl 0.0027M, pH 7.4 at 25° C.). The right column of sample tubes held a solute of rabbit serum albumin (Sigma-Aldrich, batch 104K7560, agarose gel electrophoresis) in PBS. The albumin, purchased as a lyophilized powder, was dissolved in PBS, at a 4.5% weight to volume ratio resulting in ˜0.67 mM concentration. Vasovist (0.25 mmol/mL) was added in equal concentration to both columns to achieve sample concentrations of 0, 10, 20, 40, 80 and 160 μM as a function of descending rows.
Imaging was performed on a Sigma LX 1.5 T clinical MRI machine (General Electric Healthcare), equipped with an actively shielded electromagnetic ΔB insert (19). […]

[3] = target: human serum albumin (Homo sapiens, UniProt P02768); settings: cited from earlier work; for increase of relaxivity of the bound form: in the presence of human serum albumin
[4] = system: albumin; settings: 1.5 T, cited from earlier work
[5] = target: T2, myeloperoxidase (Homo sapiens, UniProt P05164); settings: in the presence of active myeloperoxidase; cited from earlier work
T2 sequence (P05164 49-745): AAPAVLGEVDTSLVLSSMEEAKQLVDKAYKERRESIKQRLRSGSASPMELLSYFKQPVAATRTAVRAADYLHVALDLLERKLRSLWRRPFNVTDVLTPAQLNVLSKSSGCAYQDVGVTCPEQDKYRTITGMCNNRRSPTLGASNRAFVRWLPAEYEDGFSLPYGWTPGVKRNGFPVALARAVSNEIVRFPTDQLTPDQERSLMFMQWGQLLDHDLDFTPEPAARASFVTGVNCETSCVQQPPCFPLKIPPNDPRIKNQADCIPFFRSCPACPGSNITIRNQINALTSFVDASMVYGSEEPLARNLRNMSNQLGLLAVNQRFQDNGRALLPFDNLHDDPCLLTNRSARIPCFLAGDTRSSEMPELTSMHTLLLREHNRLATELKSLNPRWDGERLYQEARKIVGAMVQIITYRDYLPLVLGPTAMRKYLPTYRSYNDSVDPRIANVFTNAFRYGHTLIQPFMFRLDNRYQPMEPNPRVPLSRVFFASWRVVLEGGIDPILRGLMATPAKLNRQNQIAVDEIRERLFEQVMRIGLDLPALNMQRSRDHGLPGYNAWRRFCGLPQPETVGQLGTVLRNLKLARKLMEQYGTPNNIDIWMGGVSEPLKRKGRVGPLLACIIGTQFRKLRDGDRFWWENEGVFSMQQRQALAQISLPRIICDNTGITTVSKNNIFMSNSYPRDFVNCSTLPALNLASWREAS

Sequence of human serum albumin (P02768 25-609): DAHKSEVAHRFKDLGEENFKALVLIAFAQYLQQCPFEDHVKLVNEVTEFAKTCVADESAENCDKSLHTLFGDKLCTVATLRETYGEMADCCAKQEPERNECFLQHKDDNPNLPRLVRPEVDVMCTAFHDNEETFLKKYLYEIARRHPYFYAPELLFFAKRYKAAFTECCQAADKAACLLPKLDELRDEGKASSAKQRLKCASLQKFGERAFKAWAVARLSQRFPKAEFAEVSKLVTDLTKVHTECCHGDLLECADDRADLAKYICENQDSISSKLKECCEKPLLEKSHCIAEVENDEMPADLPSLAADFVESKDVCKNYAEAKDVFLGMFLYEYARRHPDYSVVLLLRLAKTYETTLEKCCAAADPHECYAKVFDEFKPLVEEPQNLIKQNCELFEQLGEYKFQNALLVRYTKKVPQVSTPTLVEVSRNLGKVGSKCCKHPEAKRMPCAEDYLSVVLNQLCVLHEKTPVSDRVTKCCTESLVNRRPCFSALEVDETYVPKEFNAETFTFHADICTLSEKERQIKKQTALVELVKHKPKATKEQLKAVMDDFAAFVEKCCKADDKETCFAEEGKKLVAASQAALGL
T1 sequence (P49065 25-608): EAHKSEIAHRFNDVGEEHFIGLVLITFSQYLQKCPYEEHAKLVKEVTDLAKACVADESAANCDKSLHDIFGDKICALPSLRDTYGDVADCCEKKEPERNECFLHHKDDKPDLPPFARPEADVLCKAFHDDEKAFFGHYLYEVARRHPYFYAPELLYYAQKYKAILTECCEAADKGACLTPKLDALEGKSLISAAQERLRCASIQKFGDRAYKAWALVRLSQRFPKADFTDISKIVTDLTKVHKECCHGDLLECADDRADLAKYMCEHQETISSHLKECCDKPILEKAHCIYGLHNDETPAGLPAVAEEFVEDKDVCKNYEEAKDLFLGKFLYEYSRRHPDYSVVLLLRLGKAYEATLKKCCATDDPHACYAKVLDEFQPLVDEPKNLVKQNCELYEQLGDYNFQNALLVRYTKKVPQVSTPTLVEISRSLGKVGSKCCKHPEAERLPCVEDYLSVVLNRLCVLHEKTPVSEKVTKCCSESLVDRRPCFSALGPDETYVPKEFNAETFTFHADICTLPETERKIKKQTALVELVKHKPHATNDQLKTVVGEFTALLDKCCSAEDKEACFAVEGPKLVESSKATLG

increase of relaxivity slope enhancement ratio over absolute relaxivity enhancement ratio ([1]; 1.5 T) [fold]	relaxivity enhancement ratio (activated relaxivity to inactivated relaxivity) ([1]; 1.5 T)	relaxivity slope enhancement ratio (activated r1′ to inactivated r1′) ([1]; 1.5 T)	magnetic field strength at which the relaxivity enhancement ratio peaks ([1]; from FIG. 3) [T]	SMILES	DREMR image intensity, albumin samples ([2]; 4.5% rabbit serum albumin in PBS, ±70 mT ΔB)	standard T1 weighted spin-echo image intensity ([2]; albumin solution and PBS samples, 0-160 μM)	binding to human serum albumin [3]	increase of relaxivity of the bound form ([3]; 30 Mhz)	increase of relaxivity of the bound form ([3]; 60 MHz)	relaxivity ([4]; absence of albumin) [s⁻¹ mM⁻¹]	relaxivity ([4]; presence of albumin) [s⁻¹ mM⁻¹]	relaxivity change on conversion to oligomeric form [5]
25	3.7	90	~0.5	O=C([O-])CN(CCN(CC(=O)[O-])CC(COP(=O)([O-])OC1CCC(c2ccccc2)(c2ccccc2)CC1)N(CC(=O)[O-])CC(=O)[O-])CC(=O)[O-].[Gd+3].[Na+].[Na+].[Na+] (stereo not drawn) [Vasovist, Gadofosveset trisodium]	continued to demonstrate dependence on Vasovist concentration	demonstrated significant dependence on Vasovist concentration	strong non-covalent binding	approximately an order of magnitude	approximately four-fold	5.2	19	–
–	–	–	–	O=C([O-])CN(CCN(CC(=O)[O-])CC(=O)NCCc1c[nH]c2ccc(O)cc12)CCN(CC(=O)[O-])CC(=O)NCCc1c[nH]c2ccc(O)cc12.[Gd+3] [bis-5-HT-DTPA(Gd)]	–	–	–	–	–	–	–	enhanced relaxivity
